Here are results for 63 compounds from PubChem BioAssay AID977614 (Broad Institute, 2014).

The AC50 is the concentration at which the activity in the assay is half-maximal.

SMILES strings stand for the structures. Activity calls are given as the source filed them.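 How the source made its calls: active means parasite count per well reduced by over 3 SD from the mean, with host cell number above 80% of untreated; inactive means the rest.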

The subject of the assay is L. donovani amastigotes in THP-1 macrophages, DAPI imaging, 72 h. The assay can be described thus: L. donovani intracellular amastigote growth inhibitors, imaging, THP-1 host macrophages, single concentration (AID 977614).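 Further: signal is the parasite per host cell ratio from DAPI stained kinetoplasts and nuclei.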
`O=C(c1ccccn1)N1C[C@@H]2[C@H](c3ccccc31)[C@@H](CO)N2C(=O)Nc1ccccc1Cl`: the AC50 is > 10 µM (inactive).

Turning to `C[C@@H]1CN([C@H](C)CO)C(=O)CCCn2nncc2CO[C@H]1CN(C)C(=O)Oc1cccc2ccccc12`, the AC50 is > 10 µM (inactive).

Take `OC[C@@H]1[C@H]2c3ccccc3NC[C@H]2N1Cc1ccccc1Cl`: the AC50 is > 10 µM (inactive).

As to `C[C@H]1CN([C@@H](C)CO)C(=O)CCCn2cc(nn2)CO[C@H]1CN(C)C(=O)c1ccc(N2CCN(C)CC2)cc1`, the AC50 was > 10 µM (inactive).

With `C[C@H](CO)N1C[C@H](C)[C@@H](CN(C)C(=O)Nc2cccc(C(F)(F)F)c2)OCc2cn(nn2)CCCC1=O`, the AC50 is > 10 µM (inactive).

Turning to `Cc1noc(C)c1S(=O)(=O)N(C)C[C@H]1OCc2cn(nn2)CCCC(=O)N([C@H](C)CO)C[C@@H]1C`, the AC50 is > 10 µM (inactive).

On to `CN1C[C@H]2[C@@H](c3ccccc31)[C@H](CO)N2C(=O)C1CCOCC1`, for which the AC50 was > 10 µM (inactive).

With `C/C=C/c1ccc([C@H]2[C@@H](CO)N(S(C)(=O)=O)[C@@H]2CN(C(C)=O)C(C)C)cc1`, the AC50 was > 10 µM (inactive).

Regarding `COc1ccccc1NC(=O)N1C[C@@H]2[C@H](c3ccccc31)[C@H](CO)N2CC1CCOCC1`, the AC50 was > 10 µM (inactive).

Consider `C[C@@H]1CN([C@@H](C)CO)C(=O)CCCn2nncc2CO[C@@H]1CN(C)Cc1cccc(C(F)(F)F)c1`, for which the AC50 was > 10 µM (inactive).

Turning to `C[C@H]1CN([C@@H](C)CO)C(=O)CCCn2nncc2CO[C@@H]1CN(C)C(=O)Nc1ccc(-c2cccs2)cc1`, the AC50 was > 10 µM (inactive).

For the compound `O=C(C1CCOCC1)N1C[C@H]2[C@@H](c3ccccc31)[C@@H](CO)N2C(=O)Cc1ccccn1`, the AC50 is > 10 µM (inactive).

Take `O=S(=O)(c1ccccc1)N1[C@H](CO)[C@H]2c3ccccc3NC[C@H]21`: the AC50 is > 10 µM (inactive).

Consider `C[C@H](CO)N1C[C@H](C)[C@H](CN(C)S(=O)(=O)c2ccc(-n3cccn3)cc2)OCc2cn(nn2)CCCC1=O`, for which the AC50 was > 10 µM (inactive).

For the compound `C/C=C/c1ccc([C@H]2[C@@H](CNC(C)=O)N(C(=O)Cc3ccncc3)[C@H]2CO)cc1`, the AC50 was > 10 µM (inactive).

Consider `C[C@@H]1CN([C@H](C)CO)C(=O)CCCn2nncc2CO[C@H]1CN(C)Cc1ccccc1C(=O)O`, for which the AC50 was > 10 µM (inactive).

Regarding `C[C@@H]1CN([C@@H](C)CO)C(=O)CCCn2nncc2CO[C@@H]1CN(C)Cc1ccc(C(=O)Nc2ccccc2N)cc1`, the AC50 was > 10 µM (inactive).

As to `C[C@@H]1CN([C@@H](C)CO)C(=O)CCCn2nncc2CO[C@@H]1CN(C)C(=O)Nc1ccccc1C(F)(F)F`, the AC50 is > 10 µM (inactive).

For the compound `C/C=C/c1ccc([C@H]2[C@H](CO)N(S(C)(=O)=O)[C@H]2CNCC2CCC2)cc1`, the AC50 is > 10 µM (inactive).

As for `COc1ccc(NC(=O)N2C[C@@H]3[C@H](c4ccccc42)[C@H](CO)N3Cc2ccccn2)cc1`, the AC50 is > 10 µM (inactive).

With `C[C@H]1CN([C@@H](C)CO)C(=O)CCCn2nncc2CO[C@H]1CN(C)Cc1cccc2c1OCCCO2`, the AC50 was > 10 µM (inactive).

For `O=C(c1cccc(F)c1)N1C[C@H]2[C@@H](c3ccccc31)[C@@H](CO)N2Cc1cocn1`, the AC50 was > 10 µM (inactive).

As to `C/C=C/c1ccc([C@@H]2[C@@H](CO)N[C@@H]2CN(CC)C(=O)CN2CCOCC2)cc1`, the AC50 is > 10 µM (inactive).

On to `CC(C)N(C[C@H]1[C@@H](c2ccccc2)[C@H](CO)N1S(C)(=O)=O)C(=O)CN(C)C`, for which the AC50 is > 10 µM (inactive).

For `COCCNC[C@@H]1[C@@H](c2ccccc2)[C@@H](CO)N1c1nc(C)c(C)s1`, the AC50 is > 10 µM (inactive).

Turning to `Cc1noc(C)c1S(=O)(=O)N(C)C[C@@H]1OCc2cn(nn2)CCCC(=O)N([C@H](C)CO)C[C@@H]1C`, the AC50 was > 10 µM (inactive).

Regarding `O=S(=O)(c1ccc(F)cc1)N1C[C@H]2[C@@H](c3ccccc31)[C@H](CO)N2Cc1ccccc1Cl`, the AC50 is > 10 µM (inactive).

`COCC(=O)NC[C@@H]1[C@@H](c2ccccc2)[C@@H](CO)N1C(=O)c1ccccc1`: the AC50 was > 10 µM (inactive).

With `CNC[C@H]1OCc2cn(nn2)CCCC(=O)N([C@@H](C)CO)C[C@H]1C`, the AC50 is > 10 µM (inactive).

As to `CC(=O)NC[C@H]1[C@@H](c2ccc(C#Cc3ccccc3F)cc2)[C@@H](CO)N1C(C)=O`, the AC50 was > 10 µM (inactive).

For `C/C=C/c1ccc([C@H]2[C@@H](CO)N(c3nc(C)c(C)s3)[C@@H]2CNCC(C)C)cc1`, the AC50 was > 10 µM (inactive).

Consider `CC(=O)N1[C@H](CO)[C@@H](c2ccc(C3=CCCCC3)cc2)[C@@H]1CNC(=O)CN(C)C`, for which the AC50 was > 10 µM (inactive).

As for `C[C@H](CO)N1C[C@H](C)[C@H](CN(C)C(=O)Nc2ccc3c(c2)OCCO3)OCc2cnnn2CCCC1=O`, the AC50 was > 10 µM (inactive).

Turning to `COc1ccc(CN(C)C[C@@H]2OCc3cnnn3CCCC(=O)N([C@@H](C)CO)C[C@H]2C)cc1`, the AC50 is > 10 µM (inactive).

Regarding `C[C@@H]1CN([C@@H](C)CO)C(=O)CCCn2nncc2CO[C@@H]1CN(C)S(=O)(=O)c1ccc(Oc2ccccc2)nc1`, the AC50 was > 10 µM (inactive).

Consider `Cc1noc(C)c1NC(=O)N(C)C[C@H]1OCc2cnnn2CCCC(=O)N([C@H](C)CO)C[C@H]1C`, for which the AC50 was > 10 µM (inactive).

`C[C@H]1CN([C@@H](C)CO)C(=O)CCCn2cc(nn2)CO[C@H]1CN(C)C(=O)Nc1cccc(C(F)(F)F)c1`: the AC50 is > 10 µM (inactive).

On to `Cc1noc(C)c1S(=O)(=O)N(C)C[C@H]1OCc2cn(nn2)CCCC(=O)N([C@@H](C)CO)C[C@H]1C`, for which the AC50 is > 10 µM (inactive).

Take `COc1ccc(C(=O)N2C[C@@H]3[C@H](c4ccccc42)[C@H](CO)N3C(=O)Cc2ccccn2)cc1`: the AC50 is > 10 µM (inactive).

For the compound `CC(=O)N1[C@H](CNC(=O)CN(C)C)[C@@H](c2ccc(C3=CCCCC3)cc2)[C@@H]1CO`, the AC50 is > 10 µM (inactive).

As for `OC[C@H]1[C@@H]2c3ccccc3NC[C@@H]2N1Cc1ccccc1Cl`, the AC50 is > 10 µM (inactive).

Take `O=C(c1ccncc1)N1C[C@H]2[C@@H](c3ccccc31)[C@H](CO)N2Cc1ccccc1F`: the AC50 is > 10 µM (inactive).

Take `C[C@@H]1CN([C@H](C)CO)C(=O)CCCn2nncc2CO[C@H]1CN(C)Cc1ccc(C(=O)Nc2ccccc2N)cc1`: the AC50 is > 10 µM (inactive).

Take `COc1ccc(CN2[C@H](CO)[C@H]3c4ccccc4N(C(=O)NC(C)C)C[C@H]32)cc1`: the AC50 was > 10 µM (inactive).

On to `C[C@H]1CN([C@@H](C)CO)C(=O)CCCn2cc(nn2)CO[C@H]1CN(C)Cc1ccccc1`, for which the AC50 was > 10 µM (inactive).

Regarding `O=C(NC[C@H]1[C@H](c2ccccc2)[C@H](CO)N1Cc1ccccn1)C1CCCC1`, the AC50 is > 10 µM (inactive).

Consider `CN(C[C@@H]1N[C@H](CO)[C@@H]1c1ccc(-c2cccc(F)c2)cc1)C(=O)CC1CC1`, for which the AC50 is > 10 µM (inactive).

For the compound `O=C(NC[C@@H]1[C@@H](c2ccccc2)[C@H](CO)N1C(=O)C1CCC1)NC1CCCC1`, the AC50 was > 10 µM (inactive).

On to `C[C@H](CO)N1C[C@H](C)[C@@H](CN(C)C(=O)c2ccc(N3CCN(C)CC3)cc2)OCc2cn(nn2)CCCC1=O`, for which the AC50 was > 10 µM (inactive).

`O=S(=O)(c1ccccc1)N1C[C@H]2[C@@H](c3ccccc31)[C@@H](CO)N2Cc1ccccn1`: the AC50 is > 10 µM (inactive).

For `C[C@@H]1CN([C@H](C)CO)C(=O)CCCn2nncc2CO[C@H]1CN(C)C(=O)CCC(F)(F)F`, the AC50 is > 10 µM (inactive).

As for `O=S(=O)(c1ccccc1)N1[C@@H](CO)[C@@H]2c3ccccc3NC[C@@H]21`, the AC50 was > 10 µM (inactive).

For the compound `COc1ccc(CN(C)C[C@@H]2OCc3cnnn3CCCC(=O)N([C@@H](C)CO)C[C@@H]2C)cc1`, the AC50 was > 10 µM (inactive).

Consider `C[C@H](CO)N1C[C@H](C)[C@H](CN(C)Cc2ccccc2)OCc2cn(nn2)CCCC1=O`, for which the AC50 was > 10 µM (inactive).

For the compound `C[C@H](CO)N1C[C@H](C)[C@H](CN(C)C(=O)c2ccc(N3CCN(C)CC3)cc2)OCc2cn(nn2)CCCC1=O`, the AC50 was > 10 µM (inactive).

With `COCCN(C[C@@H]1[C@@H](c2ccccc2)[C@@H](CO)N1C(C)=O)C(=O)c1cccnc1`, the AC50 was > 10 µM (inactive).

Take `COCC(=O)N1[C@@H](CO)[C@@H]2c3ccccc3N(C(=O)c3cccnc3)C[C@@H]21`: the AC50 was > 10 µM (inactive).

In the case of `COc1ccc(CN2[C@H](CO)[C@H]3c4ccccc4NC[C@H]32)cc1`, the AC50 was > 10 µM (inactive).

In the case of `CCCNC[C@@H]1[C@@H](c2ccc(C3=CCCCC3)cc2)[C@@H](CO)N1C(=O)C1CCC1`, the AC50 is > 10 µM (inactive).

Take `C[C@H]1CN([C@@H](C)CO)C(=O)CCCn2nncc2CO[C@H]1CN(C)S(=O)(=O)c1ccc(Oc2ccccc2)nc1`: the AC50 was > 10 µM (inactive).

`C[C@H]1CN([C@@H](C)CO)C(=O)CCCn2nncc2CO[C@H]1CN(C)S(=O)(=O)c1cn(C)cn1`: the AC50 is > 10 µM (inactive).

`O=S(=O)(c1ccc(F)cc1)N1C[C@H]2[C@@H](c3ccccc31)[C@@H](CO)N2Cc1ccccc1Cl`: the AC50 was > 10 µM (inactive).

On to `CNC[C@@H]1OCc2cn(nn2)CCCC(=O)N([C@H](C)CO)C[C@@H]1C`, for which the AC50 was > 10 µM (inactive).
